Experimental data: PubChem BioAssay (NCI)
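Method: 48-hour compound exposure of cells in 96-well plates, five concentrations, linear interpolation of endpoints. The concentration for full growth arrest is given as TGI.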

Columns and labels:
Experiment in all cases: NCI-60 cell line screen, 48 h
COLO 205 colon = system: COLO 205 colon
OVCAR-4 ovarian = system: OVCAR-4 ovarian
OVCAR-3 ovarian = system: OVCAR-3 ovarian
SF-268 CNS = system: SF-268 CNS
CAKI-1 renal = system: CAKI-1 renal
RPMI-8226 leukemia = system: RPMI-8226 leukemia
DU-145 prostate = system: DU-145 prostate
HOP-62 NSCLC = system: HOP-62 NSCLC
MCF7 breast = system: MCF7 breast
HS 578T breast = system: HS 578T breast
OVCAR-5 ovarian = system: OVCAR-5 ovarian
ACHN renal = system: ACHN renal
NCI-H460 lung = system: NCI-H460 lung
HT29 colon = system: HT29 colon
A498 renal = system: A498 renal
MOLT-4 leukemia = system: MOLT-4 leukemia
SK-MEL-2 melanoma = system: SK-MEL-2 melanoma
T-47D breast = system: T-47D breast
SNB-75 CNS = system: SNB-75 CNS

Structure (SMILES)	TGI (COLO 205 colon) [µM]	TGI (OVCAR-4 ovarian) [µM]	TGI (OVCAR-3 ovarian) [µM]	TGI (SF-268 CNS) [µM]	TGI (CAKI-1 renal) [µM]	TGI (RPMI-8226 leukemia) [µM]	TGI (DU-145 prostate) [µM]	TGI (HOP-62 NSCLC) [µM]	TGI (MCF7 breast) [µM]	TGI (HS 578T breast) [µM]	TGI (OVCAR-5 ovarian) [µM]	TGI (ACHN renal) [µM]	TGI (NCI-H460 lung) [µM]	TGI (HT29 colon) [µM]	TGI (A498 renal) [µM]	TGI (MOLT-4 leukemia) [µM]	TGI (SK-MEL-2 melanoma) [µM]	TGI (T-47D breast) [µM]	TGI (SNB-75 CNS) [µM]
CC(=O)c1cccc(Nc2c3ccccc3nc3occc23)c1	29.1	6.67	5.99	> 100	8.82	15.9	> 100	20.6	> 100	35.3	> 100	> 100	> 100	8.46	74.7	51.6	11.4	28	–
CCCCCCCC/C=C\CCCCCCCC(=O)OC[C@]1(CO)CCC(=O)O1	> 100	> 100	> 100	> 100	> 100	–	> 100	> 100	> 100	> 100	> 100	> 100	> 100	> 100	> 100	> 100	> 100	> 100	> 100
O=C1NC(=O)[C@@H](OCC2CCCCC2)[C@@H]2OCC3OC(C(O)C3O)C12 (stereo partly specified)	> 100	> 100	> 100	> 100	> 100	–	> 100	> 100	> 100	> 100	> 100	> 100	> 100	> 100	> 100	> 100	> 100	> 100	–
COC(=O)/C=C\[C@@H]1[C@H](C)N1S(=O)(=O)c1ccc(C)cc1 (stereo partly specified)	> 100	> 100	> 100	> 100	> 100	> 100	> 100	> 100	> 100	> 100	> 100	> 100	> 100	> 100	> 100	> 100	> 100	> 100	–
O=C1N(CN2CCOCC2)CN(CN2CCOCC2)C(=O)N1Cc1ccc(-c2ccc(CN3C(=O)N(CN4CCOCC4)CN(CN4CCOCC4)C3=O)cc2)cc1	> 41.9	39.3	30	59.3	29.2	–	40.1	> 57.8	> 100	> 100	39.8	99.3	54.5	> 100	44.1	> 100	> 51.8	> 100	49.6
CC(C)C(C/C=C1/CC(CO)(COC(=O)C(C)(C)C)OC1=O)C(C)C (stereo unspecified)	5.32	31.5	29.9	23.5	17.9	–	23.4	18.8	35.6	11	24.3	21	25.7	32.3	21.8	35.6	29.9	23.3	21.1
CN(C(=O)[C@@H](NC(=O)OC(C)(C)C)c1ccccc1)[C@H]1CCCC[C@@H]1N1CCCC1	> 100	> 100	> 100	> 100	> 100	> 100	> 100	> 100	> 100	> 100	> 100	> 100	–	> 100	> 100	> 100	> 100	> 100	–
CSC1=C(C#N)C(=O)N(c2ccc(Cl)cc2)C(=O)C1C#N (stereo unspecified)	> 100	> 100	> 100	> 100	> 100	> 100	> 100	> 100	> 100	> 100	> 100	> 100	> 100	> 100	> 100	> 100	> 100	> 100	–
N#Cc1c(N)c2c(c(-c3ccccc3)c1-c1ccccc1)C(=O)N(Nc1ccccc1)C2=O	56.7	> 100	78.1	> 100	> 100	> 100	> 100	–	> 100	> 100	> 100	> 100	> 100	–	> 100	> 100	> 100	71	> 100
CCN(CC)CCSc1n[nH]c(-c2c[nH]c3nc(C)ccc3c2=O)n1	> 100	> 100	> 100	> 100	> 100	> 100	> 100	> 100	> 100	> 100	> 100	> 100	> 100	> 100	> 100	> 100	> 100	> 100	–
CCNc1nc(N)c(C(=O)c2cccs2)s1	22.8	77.6	> 100	> 100	59.9	–	> 100	> 100	> 100	> 100	> 100	> 100	> 100	72.4	82.6	60.7	45	84.3	36.6
CC(C)Oc1c(C2(c3ccccc3O)SCCCS2)c(=O)c1=O	> 100	> 100	> 100	> 100	> 100	–	> 100	> 100	> 100	> 100	> 100	> 100	> 100	> 100	> 100	> 100	> 100	> 100	> 100
CCCCC1C(=O)N(c2ccc(S(=O)(=O)Nc3ccccn3)cc2)N(c2ccc(O)c(C(=O)O)c2)C1=O (stereo unspecified)	> 100	> 100	> 100	> 100	> 100	> 100	> 100	–	> 100	> 100	> 100	> 100	> 100	> 100	> 100	> 100	> 100	> 100	> 100
